Experimental data published in the NIST ThermoML archive (doi:10.1021/je400056z).

Test: xn = mol fraction of the nth substance listed
Conditions: Liquid, Vibrating tube method

CCCCCCCCCCCCC [tridecane] + O=C=O
Conditions	mass density [kg/m3]
353.12 K, 20000 kPa, x2 = 0.0955	732.3
353.12 K, 20000 kPa, x2 = 0.2526	735.2
353.12 K, 21000 kPa, x2 = 0.0955	733.1
353.12 K, 21000 kPa, x2 = 0.2526	736
353.12 K, 22000 kPa, x2 = 0.0955	733.9
353.12 K, 22000 kPa, x2 = 0.2526	736.8
353.12 K, 23000 kPa, x2 = 0.0955	734.6
353.12 K, 23000 kPa, x2 = 0.2526	737.6
353.12 K, 24000 kPa, x2 = 0.0955	735.4
353.12 K, 24000 kPa, x2 = 0.2526	738.5
353.12 K, 25000 kPa, x2 = 0.0955	736.1
353.12 K, 25000 kPa, x2 = 0.2526	739.2
353.13 K, 17000 kPa, x2 = 0.8978	677.4
353.13 K, 18000 kPa, x2 = 0.8978	689.5
353.13 K, 20000 kPa, x2 = 0.8978	712.3
353.13 K, 21000 kPa, x2 = 0.8978	721.9
353.13 K, 22000 kPa, x2 = 0.8978	730.6
353.13 K, 23000 kPa, x2 = 0.8978	738.3
353.13 K, 24000 kPa, x2 = 0.8978	745.5
353.13 K, 25000 kPa, x2 = 0.8978	752.2
353.15 K, 8000 kPa, x2 = 0.5259	729.7
353.15 K, 9000 kPa, x2 = 0.5259	731.2
353.15 K, 10000 kPa, x2 = 0.5259	732.7
353.15 K, 11000 kPa, x2 = 0.5259	734.2
353.15 K, 12000 kPa, x2 = 0.5259	735.6
353.15 K, 13000 kPa, x2 = 0.5259	737
353.15 K, 14000 kPa, x2 = 0.5259	738.3
353.15 K, 15000 kPa, x2 = 0.5259	739.7
353.15 K, 16000 kPa, x2 = 0.5259	741
353.15 K, 17000 kPa, x2 = 0.5259	742.3
353.15 K, 18000 kPa, x2 = 0.5259	743.6
353.15 K, 19000 kPa, x2 = 0.5259	744.9
353.15 K, 20000 kPa, x2 = 0.5259	746
353.15 K, 21000 kPa, x2 = 0.5259	747.3
353.15 K, 22000 kPa, x2 = 0.5259	748.4
353.15 K, 23000 kPa, x2 = 0.5259	749.6
353.15 K, 24000 kPa, x2 = 0.5259	750.6
353.15 K, 25000 kPa, x2 = 0.5259	751.8
353.35 K, 16000 kPa, x2 = 0.7549	739.7
353.35 K, 17000 kPa, x2 = 0.7549	742.7
353.35 K, 18000 kPa, x2 = 0.7549	745.7
353.35 K, 19000 kPa, x2 = 0.7549	748.7
353.35 K, 20000 kPa, x2 = 0.7549	751.8
353.35 K, 21000 kPa, x2 = 0.7549	754.9
353.35 K, 22000 kPa, x2 = 0.7549	757.9
353.35 K, 23000 kPa, x2 = 0.7549	760.8
353.35 K, 24000 kPa, x2 = 0.7549	763.8
353.35 K, 25000 kPa, x2 = 0.7549	766.7
363.07 K, 19000 kPa, x2 = 0.8978	671.9
363.07 K, 20000 kPa, x2 = 0.8978	681
363.07 K, 21000 kPa, x2 = 0.8978	691.1
363.07 K, 22000 kPa, x2 = 0.8978	700.8
363.07 K, 23000 kPa, x2 = 0.8978	709.5
363.07 K, 24000 kPa, x2 = 0.8978	717.3
363.07 K, 25000 kPa, x2 = 0.8978	724.8
363.11 K, 9000 kPa, x2 = 0.0955	715.7
363.11 K, 9000 kPa, x2 = 0.2526	717.4
363.11 K, 10000 kPa, x2 = 0.0955	716.7
363.11 K, 10000 kPa, x2 = 0.2526	718.4
363.11 K, 10000 kPa, x2 = 0.5259	723
363.11 K, 11000 kPa, x2 = 0.0955	717.7
363.11 K, 11000 kPa, x2 = 0.2526	719.5
363.11 K, 11000 kPa, x2 = 0.5259	724.6
363.11 K, 12000 kPa, x2 = 0.0955	718.7
363.11 K, 12000 kPa, x2 = 0.2526	720.5
363.11 K, 12000 kPa, x2 = 0.5259	726.2
363.11 K, 13000 kPa, x2 = 0.0955	719.6
363.11 K, 13000 kPa, x2 = 0.2526	721.5
363.11 K, 13000 kPa, x2 = 0.5259	727.6
363.11 K, 14000 kPa, x2 = 0.0955	720.5
363.11 K, 14000 kPa, x2 = 0.2526	722.6
363.11 K, 14000 kPa, x2 = 0.5259	729.2
363.11 K, 15000 kPa, x2 = 0.0955	721.5
363.11 K, 15000 kPa, x2 = 0.2526	723.6
363.11 K, 15000 kPa, x2 = 0.5259	730.6
363.11 K, 16000 kPa, x2 = 0.0955	722.4
363.11 K, 16000 kPa, x2 = 0.2526	724.6
363.11 K, 16000 kPa, x2 = 0.5259	732
363.11 K, 17000 kPa, x2 = 0.0955	723.3
363.11 K, 17000 kPa, x2 = 0.2526	725.5
363.11 K, 17000 kPa, x2 = 0.5259	733.4
363.11 K, 18000 kPa, x2 = 0.0955	724.1
363.11 K, 18000 kPa, x2 = 0.2526	726.4
363.11 K, 18000 kPa, x2 = 0.5259	734.7
363.11 K, 19000 kPa, x2 = 0.0955	725
363.11 K, 19000 kPa, x2 = 0.2526	727.4
363.11 K, 19000 kPa, x2 = 0.5259	736
363.11 K, 20000 kPa, x2 = 0.0955	725.8
363.11 K, 20000 kPa, x2 = 0.2526	728.3
363.11 K, 20000 kPa, x2 = 0.5259	737.3
363.11 K, 21000 kPa, x2 = 0.0955	726.6
363.11 K, 21000 kPa, x2 = 0.2526	729.2
363.11 K, 21000 kPa, x2 = 0.5259	738.6
363.11 K, 22000 kPa, x2 = 0.0955	727.5
363.11 K, 22000 kPa, x2 = 0.2526	730.1
363.11 K, 22000 kPa, x2 = 0.5259	739.9
363.11 K, 23000 kPa, x2 = 0.0955	728.3
363.11 K, 23000 kPa, x2 = 0.2526	731
363.11 K, 23000 kPa, x2 = 0.5259	741.1
363.11 K, 24000 kPa, x2 = 0.0955	729.1
363.11 K, 24000 kPa, x2 = 0.2526	731.8
363.11 K, 24000 kPa, x2 = 0.5259	742.3
363.11 K, 25000 kPa, x2 = 0.0955	729.9
363.11 K, 25000 kPa, x2 = 0.2526	732.7
363.11 K, 25000 kPa, x2 = 0.5259	743.4
363.34 K, 16000 kPa, x2 = 0.7549	720.1
363.34 K, 17000 kPa, x2 = 0.7549	724.7
363.34 K, 18000 kPa, x2 = 0.7549	728.3
363.34 K, 19000 kPa, x2 = 0.7549	730.8
363.34 K, 20000 kPa, x2 = 0.7549	734.2
363.34 K, 21000 kPa, x2 = 0.7549	737.3
363.34 K, 22000 kPa, x2 = 0.7549	740.5
363.34 K, 23000 kPa, x2 = 0.7549	743.8
363.34 K, 24000 kPa, x2 = 0.7549	746.9
363.34 K, 25000 kPa, x2 = 0.7549	750.1
